Results: publication PMC7614683, “A small molecule PI3Kα activator for cardioprotection and neuroregeneration” (Nature, 2023)
Where “and” joins values, the source holds several entries; their conditions need not be identical. Equal entries are not always repeated.

Key:
[1] = tested on: PI3Kα-KO MEFs; test: CellTiter-Glo cell assay, PI3Kα-KO MEFs; type: cell-based, mouse; settings: 24h
Experimental: MEFs were seeded at 5000 cells per well in 96-well plates in DMEM supplemented with 10% FBS and 1% P/S, and allowed to attach overnight. The next day, cells were serum starved for 4 h prior to compound treatment in fresh serum-free DMEM. Compounds solubilised in DMSO were diluted 1:2 in a 12-point concentration response curve in DMSO. Intermediate plates were prepared by transferring 4 μl of compounds in DMSO into 96 μl of serum-free DMEM media. This was then used to treat cell plates by transferring 12.5 μl of solution from the intermediate plate into 87.5 μl of serum-free DMEM in the cell plates. […] Cell plates were incubated for 24 h, 48 h or 72 h at 37°C, 5% CO2, followed by determination of cell survival using the CellTiter-Glo® reagent according to manufacturer’s instructions (Promega #G7571). Endpoint luminescence was measured using CLARIOstar (BMG). Compound data were analyzed using GraphPad Prism 8.

[2] = tested on: PI3Kα-WT MEFs; test: pAKT S473 western blot, PI3Kα-WT MEFs; type: cell-based; settings: Mus musculus, 0.25 h; 15 min; read-out: EC50 of pAKT^S473 induction
Experimental: Unless otherwise indicated, western blotting was performed with ECL detection. For time course studies, A549 cells were seeded at 250,000 cells per well in 6-well plates in RPMI (10% FBS + 1 mM Na-Pyruvate + 1% P/S) and allowed to adhere overnight. The next day they were serum-starved for 4 h prior to treatment with 100 nM insulin or 5 μM 1938, for the indicated time (5 min to 48 h) at 37°C, 5% CO2. For 1938 titration assays in MEFs, cells were seeded at 150,000 cells per well in 6-well plates and allowed to adhere overnight. The next day they were serum-starved for 4 h prior to treatment with insulin (1 μM), 1938 (0.2 to 30 μM, final DMSO concentration of 1.5%) or inhibitors (final DMSO concentration of ≤1.5%) for 15 min at 37°C, 5% CO2. Cells were washed twice with cold PBS and lysed using cold RIPA buffer (25 mM Tris.HCl pH 7.6, 150 mM NaCl, 1% NP-40, 1% sodium deoxycholate, 0.1% SDS supplemented with protease/phosphatase inhibitor cocktail from Merck). To remove cell debris, homogenates were spun at 13,000 rpm for 15 min at 4°C and the supernatant fraction recovered. Protein concentration was determined by colorimetric assay (BCA assay, Promega). […]

[3] = tested on: isolated rat hearts; test: Langendorff ex vivo perfused rat heart model of ischaemia reperfusion injury; settings: 1938 5 μM or insulin 1 μM; Fig 5d, single hearts
Experimental: The Langendorff ex vivo perfused rat heart was used as an experimental model of IRI[79]. The animal experiments were conducted within the terms of the UK Animals (Scientific Procedures) Act 1986, under Project Licence number PPL 70/8556 (Protection of the Ischaemic and Reperfused Myocardium). All procedures conform to the guidelines from Directive 2010/63/EU of the European Parliament on the protection of animals used for scientific purposes. Male Sprague–Dawley rats were bred at a central animal unit in University College London and used at a weight of 250–350 g, and randomly assigned to experimental groups. Rats were anaesthetised by intraperitoneal injection of sodium pentobarbitone (60 mg/kg) (Animalcare, York, UK). […] Analysis of infarct size (IS) as a proportion of area at risk (AAR) was calculated via planimetry using imageJ software (version 1.45, National Institutes of Health, USA).
Alternatively, after 15 min reperfusion, perfusion was stopped and hearts were freeze-clamped in liquid nitrogen and frozen at -80°C. […] Protein content was determined by bicinchoninic acid (BCA) assay (Sigma-Aldrich, Gillingham, UK). […] The next day, membranes were probed with IRDye fluorescence-tagged secondary antibodies (#926-32211 and #926-68020; LI-COR Biosciences, Ltd. UK) and imaged and quantified using the Odyssey imaging system (Image Studio Lite Ver 5.2; LI-COR Biosciences, Cambridge, UK).

Compound	concentrations with a decrease in ATP levels (PI3Kα-independent effects) [1] [µM]	EC50 [2] [µM]	Western blot pAkt in langendorff [3]
CCN1CCN(c2ccc(Nc3cc(Nc4cccc5c4N(C(C)=O)CC5)ccn3)cc2)CC1 [Compound 1938]	> 7.5	2 to 4	–
insulin: insulin, canonical activator of PI3Kα, used as positive control	–	–	3.259 and 3.657
